This passage reports Activity, EC50 and selectivity ratio results from ChEMBL document CHEMBL4422651, “Revisiting tubercidin against kinetoplastid parasites: Aromatic substitutions at position 7 improve activity and reduce toxicity” (Eur J Med Chem, 2019).

The source made the active and inactive calls. No cut-off for these calls is given here.

One data set relates to Trypanosoma cruzi. In words: Antitrypanosomal activity against nifurtimox-sensitive Trypanosoma cruzi Tulahuen CL2 harboring beta-galactosidase infected in human MRC5 cells after 7 days by resazurin dye-based assay. It is filed as functional, organism-based.
In a further data set the test system is MRC5. In words: Cytotoxicity against human MRC5 cells assessed as reduction in cell viability after 3 days by resazurin dye-based assay. As to conditions: MRC5, 72 h. A general note: Resazurin is reduced to fluorescent resorufin, in cell work by metabolically active cells.
For data set [1], the system named is Trypanosoma brucei rhodesiense. In words: Antitrypanosomal activity against Trypanosoma brucei rhodesiense STIB-900 after 48 hrs by alamar blue assay. It is filed as functional, organism-based. Conditions: STIB-900, 48 h.
The subject of data set [2] is Trypanosoma brucei brucei. In words: Antitrypanosomal activity against Trypanosoma brucei brucei Squib 427 after 48 hrs by alamar blue assay. As to conditions: Squib 427, 48 h. It is filed as functional, organism-based.
A short description of data set [3]: Selectivity index, ratio of EC50 for human MRC5 cells to EC50 for Trypanosoma brucei rhodesiense STIB-900. It is filed as toxicity. Conditions: read-out: Ratio EC50.
Data set [4] is described as follows: Selectivity index, ratio of EC50 for human MRC5 cells to EC50 for Trypanosoma brucei brucei Squib 427. It is filed as toxicity. Conditions: read-out: Ratio EC50.

In general, EC50 refers to the concentration that produces a half-maximal response. On to `Nc1ncnc2c1c(-c1nccc3ccccc13)cn2[C@@H]1O[C@H](CO)[C@@H](O)[C@H]1O`, for which the outcome in the data set with Trypanosoma cruzi was inactive. The EC50 with MRC5 is more than 64 µM; in data set [1] it was 55.6 µM; in data set [2], more than 64 µM. In addition, the selectivity ratio in data set [3] is more than 1.2.

For the compound `COc1ccc(-c2cn([C@@H]3O[C@H](CO)[C@@H](O)[C@H]3O)c3ncnc(N)c23)cc1`, the selectivity ratio in data set [4] stood at 0.67. Besides, the result in the data set on Trypanosoma cruzi was inactive. The EC50 in the data set on MRC5 was 28 µM; in data set [2], 41.6 µM.

In the case of `Nc1ncnc2c1c(-c1cc(Cl)ccn1)cn2[C@@H]1O[C@H](CO)[C@@H](O)[C@H]1O`, the selectivity ratio in data set [4] came to 3.1; in data set [3] it was 4. In addition, the outcome in the data set on Trypanosoma cruzi was inactive. In addition, the EC50 in the data set with MRC5 came out at 27.3 µM; in data set [1], 6.88 µM; in data set [2], 8.92 µM.

For `Nc1ncnc2c1c(-c1ccc3ccccc3c1)cn2[C@@H]1O[C@H](CO)[C@@H](O)[C@H]1O`, the selectivity ratio in data set [4] came out at 0.96; in data set [3] it was 1.2. Further, in the data set on Trypanosoma cruzi, the outcome was inactive. Further, the values for the concentration giving a half-maximal response (EC50) (in the data set with MRC5; in data set [1]; in data set [2]) were 7.53 µM, 6.79 µM and 7.83 µM, respectively.

As to `Nc1ncnc2c1c(-c1cncnc1)cn2[C@@H]1O[C@H](CO)[C@@H](O)[C@H]1O`, the selectivity ratio in data set [4] was more than 1.2. Further, the result in the data set on Trypanosoma cruzi was inactive. The results for the concentration giving a half-maximal response (EC50) (in the data set on MRC5; in data set [2]) were more than 64 µM and 52.4 µM, respectively.

In the case of `Nc1ncnc2c1c(-c1ccc(F)cn1)cn2[C@@H]1O[C@H](CO)[C@@H](O)[C@H]1O`, the results for the selectivity ratio in data set [4] and in data set [3] were more than 13 and more than 38, respectively. The result in the data set with Trypanosoma cruzi was inactive. Also, the figures for the EC50 (in the data set with MRC5; in data set [1]; in data set [2]) were more than 64 µM, 1.69 µM and 4.77 µM, respectively.

Consider `COc1ccnc(-c2cn([C@@H]3O[C@H](CO)[C@@H](O)[C@H]3O)c3ncnc(N)c23)c1`, for which the figures for the selectivity ratio in data set [4] and in data set [3] were 0.3 and 0.9, respectively. The outcome with Trypanosoma cruzi was inactive. In addition, the EC50 in the data set on MRC5 is 7.59 µM; in data set [1], 8.15 µM; in data set [2], 25.5 µM.

In the case of `Nc1ncnc2c1c(-c1ccccc1F)cn2[C@@H]1O[C@H](CO)[C@@H](O)[C@H]1O`, the selectivity ratio was found to be 1.8 in data set [4] and 2.3 in data set [3]. In addition, in the data set on Trypanosoma cruzi, the outcome was inactive. In addition, the EC50 in the data set on MRC5 is 61 µM; in data set [1], 26.3 µM; in data set [2] it was 33.3 µM.

`Cc1ccc(C(=O)Nc2ccc(S(=O)(=O)O)c3cc(S(=O)(=O)O)cc(S(=O)(=O)O)c23)cc1NC(=O)c1cccc(NC(=O)Nc2cccc(C(=O)Nc3cc(C(=O)Nc4ccc(S(=O)(=O)O)c5cc(S(=O)(=O)O)cc(S(=O)(=O)O)c45)ccc3C)c2)c1` [SURAMIN]: the selectivity ratio in data set [4] was more than 1280; in data set [3], more than 1600. The EC50 in the data set with MRC5 was more than 64 µM; in data set [1], 0.04 µM; in data set [2] it was 0.05 µM.

For the compound `Nc1ncnc2c1c(-c1cccc(Cl)c1)cn2[C@@H]1O[C@H](CO)[C@@H](O)[C@H]1O`, the selectivity ratio was determined as 3.3 in data set [4] and 4.8 in data set [3]. Further, the outcome with Trypanosoma cruzi was inactive. Besides, the results for the half-maximal effective concentration (EC50) (in the data set with MRC5; in data set [1]; in data set [2]) were 32.8 µM, 6.88 µM and 9.9 µM, respectively.

On to `Nc1ncnc2c1c(-c1cccc(Cl)n1)cn2[C@@H]1O[C@H](CO)[C@@H](O)[C@H]1O`, for which the figures for the selectivity ratio in data set [4] and in data set [3] were more than 37 and more than 103, respectively. Moreover, the result with Trypanosoma cruzi was inactive. Further, the EC50 is more than 64 µM with MRC5, 0.62 µM in data set [1] and 1.75 µM in data set [2].

For `Nc1ncnc2c1c(-c1ccccc1)cn2[C@@H]1O[C@H](CO)[C@@H](O)[C@H]1O`, the selectivity ratio in data set [4] worked out at 1.7; in data set [3], 14. For the same compound, the outcome in the data set on Trypanosoma cruzi was inactive. The EC50 was 56.2 µM in the data set on MRC5, 4.1 µM in data set [1] and 32.3 µM in data set [2].

For `Nc1ncnc2c1c(-c1ccc(Cl)cn1)cn2[C@@H]1O[C@H](CO)[C@@H](O)[C@H]1O`, the selectivity ratio in data set [4] was more than 7.1; in data set [3] it was more than 13. For the same compound, the result with Trypanosoma cruzi was inactive. Besides, the EC50 with MRC5 is more than 64 µM; in data set [1] it was 4.6 µM; in data set [2], 8.97 µM.

Regarding `Nc1ncnc2c1c(-c1cnccn1)cn2[C@@H]1O[C@H](CO)[C@@H](O)[C@H]1O`, the selectivity ratio in data set [4] came out at 0.28. Also, the result in the data set on Trypanosoma cruzi was inactive. Moreover, the EC50 with MRC5 turned out to be 0.55 µM; in data set [2], 1.95 µM.

With `Cc1ccnc(-c2cn([C@@H]3O[C@H](CO)[C@@H](O)[C@H]3O)c3ncnc(N)c23)c1`, the selectivity ratio is more than 1.7 in data set [4] and more than 2.5 in data set [3]. The result with Trypanosoma cruzi was inactive. Further, the EC50 with MRC5 was more than 64 µM; in data set [1] it was 25.1 µM; in data set [2] it was 38.2 µM.

Regarding `Nc1ncnc2c1c(-c1ncccn1)cn2[C@@H]1O[C@H](CO)[C@@H](O)[C@H]1O`, the selectivity ratio in data set [4] came out at 6.3. For the same compound, the outcome in the data set on Trypanosoma cruzi was inactive. Besides, the EC50 in the data set on MRC5 is 14.3 µM; in data set [2], 2.26 µM.

For `Cc1ccc(-c2cn([C@@H]3O[C@H](CO)[C@@H](O)[C@H]3O)c3ncnc(N)c23)cc1`, the selectivity ratio in data set [4] was determined as 0.9. In the data set with Trypanosoma cruzi, the outcome was inactive. The EC50 in the data set on MRC5 was 26.2 µM; in data set [2] it was 29.1 µM.

For `Cn1cnc(-c2cn([C@@H]3O[C@H](CO)[C@@H](O)[C@H]3O)c3ncnc(N)c23)c1`, the selectivity ratio in data set [4] was 4.9. Moreover, in the data set on Trypanosoma cruzi, the result was inactive. Further, the EC50 with MRC5 is 23.4 µM; in data set [2] it was 4.76 µM.

As to `Nc1ncnc2c1c(-c1cc3ccccc3cn1)cn2[C@@H]1O[C@H](CO)[C@@H](O)[C@H]1O`, the results for the selectivity ratio in data set [4] and in data set [3] were more than 4.4 and more than 10, respectively. Also, in the data set on Trypanosoma cruzi, the result was inactive. For the same compound, the EC50 with MRC5 is more than 64 µM; in data set [1], 6.16 µM; in data set [2], 14.7 µM.

In the case of `Nc1ncnc2c1c(-c1cc(Cl)cc(Cl)c1)cn2[C@@H]1O[C@H](CO)[C@@H](O)[C@H]1O`, the selectivity ratio in data set [4] is more than 7.8; in data set [3], more than 17. Moreover, the result in the data set on Trypanosoma cruzi was inactive. Also, the EC50 in the data set with MRC5 is more than 64 µM; in data set [1] it was 3.66 µM; in data set [2] it was 8.17 µM.

As for `Cn1cncc1-c1cn([C@@H]2O[C@H](CO)[C@@H](O)[C@H]2O)c2ncnc(N)c12`, the selectivity ratio in data set [4] is more than 1.9. The outcome in the data set on Trypanosoma cruzi was inactive. The concentration for a half-maximal effect (EC50) in the data set with MRC5 was more than 64 µM; in data set [2], 33.3 µM.

For `Nc1ncnc2c1c(-c1ccc3ccccc3n1)cn2[C@@H]1O[C@H](CO)[C@@H](O)[C@H]1O`, the selectivity ratio is more than 9.9 in data set [4] and more than 17 in data set [3]. In addition, in the data set on Trypanosoma cruzi, the outcome was inactive. In addition, the results for the EC50 (with MRC5; in data set [1]; in data set [2]) were more than 64 µM, 3.72 µM and 6.45 µM, respectively.
